The results in this text go back to patent US20260097111A1, “ETHER LIPIDS FOR HYPERACTIVATION OF MAMMALIAN DENDRITIC CELLS” (priority 2022, published 2026).

“Also recorded” adds a separate entry of the source. Like-named read-outs stand apart in the source and are kept apart here.

One series can be described thus: Solubility observations. Format: physicochemical.
In series [1] the test system is human moDCs. The series can be described thus: Cell viability of human moDCs (CellTiter-Glo). It is filed as cell-based. The note with it: human moDCs, 20.6 μM lipid; FIG. 19. Here is the method:
(§1) After an overnight incubation, cells and culture supernatant were used for downstream readouts. One hundred and fifty microliters of cell supernatant were collected. Viability was measured using the CellTiter-Glo assay (Promega) which measures ATP content from cells. Fifty microliters of CellTiter-Glo reagent were added to 50 μL of cells. Luminescence was quantified on a SpectraMax m5e plate reader using an integration time of 500 milliseconds. Viability data were set relative to control conditions where cells were treated with only R848. To measure IL-1β secretion, the human IL-1β Lumit kit (Promega) was used to assay cell culture supernatant. Culture supernatant samples were incubated with enzyme-linked antibodies in a 384-well plate for 1 hour before addition of luminescent substrate. Samples were measured for luminescence with an integration time of 500 milliseconds. IL-1β concentrations of samples was determined by interpolation from a standard curve using 4-parameter logistic regression analysis. Studies were performed on three different human donor samples, and each biological condition was tested in triplicate. Graphed data represent means from each donor.
Measurement of Cytokine Secretion and Cell Viability. After an overnight incubation, cells and culture supernatant were used for downstream readouts. One hundred and fifty microliters of cell culture supernatant were collected. Viability was measured using the CellTiter-Glo assay (Promega) which measures ATP content from cells. Fifty microliters of CellTiter-Glo reagent were added to 50 μL of cells. Luminescence was quantified on a SpectraMax m5e plate reader using an integration time of 500 milliseconds. Viability data were set relative to control conditions where cells were treated with only R848. To measure IL-1β secretion, the human IL-1β Lumit kit (Promega) was used. […] Samples were measured for luminescence with an integration time of 500 milliseconds. IL-1β concentrations of samples was determined by interpolation from a standard curve using 4-parameter logistic regression analysis. […]
(In general: In ATP-based viability assays light output follows the ATP content of the culture.)

The subject of series [2] is human monocyte-derived dendritic cells (moDCs). Briefly: IL-1β secretion by human moDCs treated with lipid and R848. Format: cell-based. To be noted: for IL-1β secretion: human moDCs. Here is the method:
(§2) Human monocytes were isolated from Leukopaks purchased from Miltenyi using the StraightFrom Leukopak CD14 microbead kit (Miltenyi). Isolations were completed following manufacturer's instructions. Monocytes were then aliquoted and frozen in fetal bovine serum containing 10% dimethyl sulfoxide. For studies with monocyte-derived dendritic cell (moDC) cultures, monocytes were thawed and cultured in RPMI medium containing 10% FBS, 50 units/mL penicillin, […] streptomycin, 2 mM L-glutamine, 1 mM sodium pyruvate, […] beta-mercaptoethanol, 10 mM HEPES, and Gibco MEM non-essential amino acids (R10 media). To differentiate monocytes into moDCs, recombinant human GM-CSF (50 ng/mL) and IL-4 (25 ng/mL) were added to R10 media. Cells were cultured for 6 days with GM-CSF and IL-4, with an additional cell feeding with R10 containing GM-CSF and IL-4 on day 3.
Six days after differentiation, moDC were collected and counted. Cells were plated into 96-well flat-bottom plates at 1×10^5 cells/well. Cells were treated with or without 1 μg/mL R848 (final) and with or without a hyperactivating lipid (or vehicle control). In some experiments, MCC950, an inhibitor of the NLRP3 inflammasome, was added at a final concentration of 10 uM. In some experiments, nigericin, which causes NLRP3 inflammasome activation and subsequent pyroptosis, was used as a positive control at 20 uM. Cells and stimuli totaled a final volume of […].
Lipid stocks were then further diluted in PBS to treat cells.
as §1
as §2, with “Human moDC Production. Human” for “Human”, “(Miltenyi) according to the” for “(Miltenyi). Isolations were completed following”, “To differentiate” for “For studies with”, “pyruvate, and” for “pyruvate,”, “beta-mercaptoethanol” for “beta-mercaptoethanol, 10 mM HEPES, and Gibco MEM non-essential amino acids”
Hyperactivating Lipid Formulation—Compound 10. Lipid stocks were formulated at 200 μg/mL lipid in 5% Kolliphor P407 (KP407) in PBS.

The subject of another series is human moDC. Briefly: IL-1β ELISA, human moDC treated with R848, DGP, MCC950. It is filed as cell-based. To be noted: only R848 2.85 μM, donor HD94. The protocol: Monocyte Isolation, Storage, and Differentiation into moDC. Human leukapheresis blood products were freshly obtained from AllCells via same day or overnight shipping at 4° C. Miltenyi StraightFrom Leukopak CD14 MicroBead isolation kits were used according to manufacturer instructions to isolate CD14+ monocytes. Briefly, leukopaks ranging in quantity from 5×10^9 to 1×10^10 total nucleated cells were evenly aliquoted into 50 mL conical tubes. Cells were incubated with CD14 microbeads and then loaded on the MultiMACS using the program “Possel2”. After washing out the negative population, CD14+ cells were eluted from the columns and counted. An aliquot of monocytes was used to stain for purity of cells to ensure that isolated live cells were […] CD11c+CD14+ by flow cytometry. […] Vials were placed in CoolCell freezing containers and placed in a −80° C. freezer and stored no longer than 1 week. Frozen cells were transferred for long-term storage to the vapor phase of a liquid nitrogen freezer until use.
To differentiate monocytes into moDC, vials of cells were taken out of the liquid nitrogen freezer and quickly thawed in a 37° C. water bath. Cells were diluted ten-fold in warmed R10++ media containing 50 units/mL benzonase. R10++ media was composed of RPMI 1640 media containing 10% fetal bovine serum, 50 units/mL penicillin, […] streptomycin, 2 mM L-glutamine, 1 mM sodium pyruvate, […] beta-mercaptoethanol, 10 mM HEPES, and 1% Gibco MEM non-essential amino acids. After gentle mixing by inversion of tubes, cells were incubated at 37° C. for 10 min. Cells were pelleted at 400×g for 5 min and supernatant was aspirated. Cells were resuspended in R10++ media and counted on the MoxiGo by diluting an aliquot in PBS containing a final concentration of 2.5 μg/mL propidium iodide. Cells were plated in T75 culture flasks at 3-6×10^7 cells per flask in a total of 20 mL R10++ media containing a final concentration of 50 ng/mL GM-CSF and 25 ng/mL IL-4. Three days after the start of culture, an additional 10 mL R10++ containing 50 ng/mL GM-CSF and 25 ng/mL IL-4 was added to each flask.
Six days after start of differentiation. R10++ media containing cells were placed into 50 mL conical tubes. Flasks were washed with an additional 10 mL PBS and also collected. […] Cells were resuspended in R10++ media and counted on the MoxiGo by diluting an aliquot in PBS containing a final concentration of 2.5 μg/mL propidium iodide. Cells were then adjusted to 1×10^6 cells/mL in R10++ media.
moDC Treatment. Human moDC were plated at 1×10^5 cells/well in 96-well flat-bottom tissue culture plates in R10++ media by adding 100 μL of cells per well. To each well, a 25 μL solution of R10++ containing 400 ng/mL GM-CSF and 200 ng/mL IL-4 was added.
Lyophilized R848 stocks were prepared as described above and frozen at −80° C. An aliquot of frozen R848 was thawed and further diluted to 11.4 μM in R10++ (4 μg/mL R848). Cell culture conditions receiving R848 treatment had 50 μL added to wells. For wells not receiving R848, 50 μL R10++ was added to wells. Lyophilized MCC950 was prepared as described above and stored at −20° C. MCC950 was further diluted to 40 uM in a prepared R10++ solution containing 11.4 μM R848. Cells receiving R848 and MCC950 treatment had 50 μL added to wells. Final concentrations of R848 and MCC950 in a total 200 μL volume were respectively 2.85 μM and 10 μM.
A4.44% solution of KP407 dissolved in sterile, distilled water was prepared at a temperature of 4° C. […]

The test system of series [3] is human moDCs. To be noted: for IFNα2: R848 stimulation, FIG. 33B.
The nature of series [4]: Serum chemokines and cytokines after SC injection. It is filed as in vivo, mice. To be noted: mouse, in vivo, sc. The protocol:
Lipid Preparation. […] Lipids were used for chemical injections or DC treatment within one hour of their preparation.
Subcutaneous (SC) Injection. Mice were placed under Isoflurane for a few min for anesthesia. Tubes containing the chemicals were vortexed for 30 seconds, then loaded with a 1 mL Sub-Q syringe.
Blood Collection. Mice were placed under Isoflurane for approximately 10 min for anesthesia. Using a 21G needle, mice were gently poked through the skin to the submandibular space to induce bleeding. Five-Six drops were collected in a mini collect K2EDTA blood collection tube. Blood samples were transported back to Corner Therapeutics lab on ice. The blood was then centrifuged at 1500×g for 5 min. After centrifugation, blood was collected into a 96-well round bottom plate and stored at −80° C.
Measurement of Serum Chemokines and Cytokines. Secreted cytokines were measured in the supernatant by cytokine bead array using the LEGENDplex™ Mouse Murine Proinflammatory Chemokine, Murine Cytokine Release Syndrome Legendplex and LEGENDplex™ Mouse Cytokine Panel 2 (Biolegend) according to the manufacturer's protocol. Data were collected using a Quanteon Novocyte flow cytometer and analyzed using the cloud-based software provided by Biolegend.

For series [5], the system named is human moDCs. Briefly: IL-6 secretion by human moDCs. Format: cell-based.
Where [6] appears, read: 41.25 μM lipid with R848, FIG. 17.

Turning to `CCCCCCCCCCCCCCCCCCCCCCOC[C@@H](O)COP(=O)([O-])OCC[N+](C)(C)C` [Compound 1, 1-docosyl-sn-glycerol-3-phosphocholine], the solubility entry in the series “Solubility observations” is recorded as “can be dissolved in ethanol, methanol, or chloroform”. In the series on human moDCs [1], the cell viability was above 75%. Also, the “hyperactivation of human dendritic cells” value in series [2] (41.25 μM lipid with R848 (Compound 1 also 20.6 μM)) is listed as “hyperactivated dendritic cells”. Further, the IL-1β secretion result was “induced IL-1β secretion that was dependent upon R848 stimulation and the NLRP3 inflammasome” in series [2] (20.6 μM lipid, FIG. 20); “significantly increased IL-1β secretion” in series [2] (setting [6]); “also induced IL-1β secretion; also recorded: induced less IL-1β than 22:0 lyso PC” in series [2] (24 hours, lipid (equimolar, in 0.5% KP407) with R848, FIG. 1B, listed as DGPC).

In the case of “1-behenoyl-2-hydroxy-sn-glycero-3-phosphocholine [22:0 lyso PC, reference compound]”, the solubility entry in the series “Solubility observations” is recorded as “can be dissolved in ethanol, methanol, or chloroform”. Moreover, the IL-1β secretion entry was “significant increase in IL-1β” in series [2] (setting [6]); “produced significantly more IL-1β” in series [2] (41.25 μM lipid with R848 vs vehicle control, FIG. 8); “robustly induced IL-113 secretion” in series [2] (41.3 uM lipid with R848, FIG. 11); “IL-1β was secreted” in series [2] (24 hours, lipid (equimolar, in 0.5% KP407) with R848, FIG. 1B); “induced a detectable amount of IL-1β” in series [2] (24 hours, lipid in 4% KP407 with R848, FIG. 2B).

`CCOCc1nc2c(N)nc3ccccc3c2n1CC(C)(C)O` [Compound R848, resiquimod, reference compound]: the IL-1β in the series with human moDC turned out to be 288 µg/mL. Also, the IFNα2 worked out at 94 µg/mL in the series on human moDCs [3] (donor HD92) and 82 µg/mL in the series with human moDCs [3] (donor HD93). Besides, the IL-12p70 entry in the series on human moDCs [3] (donors HD92 and HD93, FIG. 32C) is “at least 100 μg/mL”. The “cytokine and chemokine release in the serum” value in series [4] is reported as “returned to homeostasis (PBS levels) by 24 hours post injection”. Also, the “IL-6 in cell culture supernatant” value with human moDCs [5] (human moDCs stimulated with R848, FIG. 10) is “greater than 20,000 μg/mL”. Besides, the IL-6 secretion entry in the series on human moDCs [5] (human moDCs, R848 with vehicle, no hyperactivating lipid, FIG. 16) is “approximately 20,000 μg/mL”.

As a reminder, the cell viability is the share of living cells, or the viability signal relative to a control. Low values mean more harm to the cells, high ones less harm to the cells.
